Measurements from article doi:10.1101/843607v1 (biorxiv, 2019).
pIC50: −log10 of the molar value.

Target: T1, Recombinant Mouse Matriptase (Mus musculus, UniProt P56677)
T1 sequence (P56677 615-855 limits assumed): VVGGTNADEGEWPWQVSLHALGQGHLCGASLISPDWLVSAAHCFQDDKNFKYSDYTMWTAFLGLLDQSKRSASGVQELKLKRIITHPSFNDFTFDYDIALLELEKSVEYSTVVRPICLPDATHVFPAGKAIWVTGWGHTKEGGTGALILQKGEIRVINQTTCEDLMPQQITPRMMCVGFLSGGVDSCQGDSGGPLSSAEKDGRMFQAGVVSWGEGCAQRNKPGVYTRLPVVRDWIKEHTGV
Assay: fluorogenic AMC release from Boc-QAC-AMC
Type: biochemical

N=C(N)c1ccc2cc(OC(=O)c3ccc(N=C(N)N)cc3)ccc2c1 [Nafamostat mesilate]
pIC50: 9.07
